What all share (format): cell-based
The target of assay [1] is proteins of HEK293T cells transiently overexpressing caspase-6 (Homo sapiens, UniProt O75643). Particulars: exp_ref Probe; protein SNRNP200 (O75643); analysis C6.
In assay [2] the target is T1, proteins of HEK293T cells transiently overexpressing caspase-6 (Homo sapiens, UniProt P04075).
T1 sequence (P04075 1-364): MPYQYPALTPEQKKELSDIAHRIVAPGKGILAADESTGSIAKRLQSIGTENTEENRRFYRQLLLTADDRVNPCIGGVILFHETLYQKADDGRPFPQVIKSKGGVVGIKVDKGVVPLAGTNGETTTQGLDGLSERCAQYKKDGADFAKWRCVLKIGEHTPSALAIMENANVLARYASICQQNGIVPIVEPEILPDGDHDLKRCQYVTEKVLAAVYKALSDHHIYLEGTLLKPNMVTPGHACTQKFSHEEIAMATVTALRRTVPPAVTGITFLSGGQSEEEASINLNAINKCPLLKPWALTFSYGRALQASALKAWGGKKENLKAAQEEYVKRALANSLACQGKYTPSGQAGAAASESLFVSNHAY
Particulars: protein ALDOA (P04075).

Assay [3] concerns the target T2, proteins of HEK293T cells transiently overexpressing caspase-6 (Homo sapiens, UniProt P11498).
T2 sequence (P11498 21-1178): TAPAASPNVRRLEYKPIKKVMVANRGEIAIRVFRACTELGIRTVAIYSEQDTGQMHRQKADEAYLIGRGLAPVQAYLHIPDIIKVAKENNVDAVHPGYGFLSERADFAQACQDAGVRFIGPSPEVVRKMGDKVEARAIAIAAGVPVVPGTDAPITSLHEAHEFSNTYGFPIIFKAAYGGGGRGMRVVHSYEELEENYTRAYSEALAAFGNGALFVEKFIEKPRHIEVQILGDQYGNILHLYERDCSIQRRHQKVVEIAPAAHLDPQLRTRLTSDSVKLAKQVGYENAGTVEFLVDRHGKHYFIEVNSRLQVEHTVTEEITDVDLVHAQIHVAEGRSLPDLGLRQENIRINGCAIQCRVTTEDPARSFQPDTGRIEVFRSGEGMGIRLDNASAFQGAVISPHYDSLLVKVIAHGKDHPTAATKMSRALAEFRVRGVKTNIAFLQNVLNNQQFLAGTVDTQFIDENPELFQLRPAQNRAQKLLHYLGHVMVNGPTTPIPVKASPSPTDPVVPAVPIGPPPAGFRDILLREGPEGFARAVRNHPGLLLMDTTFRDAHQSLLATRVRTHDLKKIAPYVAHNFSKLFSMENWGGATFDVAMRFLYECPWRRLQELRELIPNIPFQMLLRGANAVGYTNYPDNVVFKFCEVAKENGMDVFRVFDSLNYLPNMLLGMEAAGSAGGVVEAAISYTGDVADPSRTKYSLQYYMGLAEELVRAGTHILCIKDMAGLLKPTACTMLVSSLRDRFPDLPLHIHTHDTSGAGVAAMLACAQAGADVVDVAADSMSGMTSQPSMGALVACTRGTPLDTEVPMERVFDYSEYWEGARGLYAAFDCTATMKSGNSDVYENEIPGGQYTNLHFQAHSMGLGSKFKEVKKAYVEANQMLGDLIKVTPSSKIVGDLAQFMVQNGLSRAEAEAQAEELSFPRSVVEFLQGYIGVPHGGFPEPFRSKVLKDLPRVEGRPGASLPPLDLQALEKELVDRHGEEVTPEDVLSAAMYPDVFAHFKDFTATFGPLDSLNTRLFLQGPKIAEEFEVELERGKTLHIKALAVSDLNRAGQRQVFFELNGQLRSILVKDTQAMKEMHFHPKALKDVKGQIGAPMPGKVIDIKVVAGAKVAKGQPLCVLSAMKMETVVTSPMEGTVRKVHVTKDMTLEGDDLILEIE

The target of assay [4] is proteins of HEK293T cells transiently overexpressing caspase-6 (Homo sapiens, UniProt P14314). Particulars: Probe; protein PRKCSH P14314.
Assay [5] addresses proteins of HEK293T cells transiently overexpressing caspase-6 (Homo sapiens, UniProt P14618). The conditions noted are these: protein PKM (P14618).
Assay [6] deals with proteins of HEK293T cells transiently overexpressing caspase-6 (Homo sapiens, UniProt P22102). Particulars: exp_ref Probe; protein GART (P22102); analysis C6.
For assay [7], the target named is proteins of HEK293T cells transiently overexpressing caspase-6 (Homo sapiens, UniProt P31948).
Assay [8] addresses proteins of HEK293T cells transiently overexpressing caspase-6 (Homo sapiens, UniProt P61247). Particulars: protein RPS3A (P61247).
Assay [9] has as its target proteins of HEK293T cells transiently overexpressing caspase-6 (Homo sapiens, UniProt P62249). Particulars: exp_ref Probe; protein RPS16 (P62249); analysis C6.
For assay [10], the target named is proteins of HEK293T cells transiently overexpressing caspase-6 (Homo sapiens, UniProt P63241). Particulars: exp_ref Probe; protein EIF5A (P63241); analysis C6.
Assay [11] addresses proteins of HEK293T cells transiently overexpressing caspase-6 (Homo sapiens, UniProt Q06830). Particulars: exp_ref Probe; protein PRDX1 (Q06830); analysis C6.
In assay [12] the target is proteins of HEK293T cells transiently overexpressing caspase-6 (Homo sapiens, UniProt Q14247). Particulars: exp_ref Probe; protein CTTN (Q14247); analysis C6.

Each structure is given as a SMILES string.

Chain of proteins of HEK293T cells transiently overexpressing caspase-6 (Homo sapiens, UniProt P31948) (P31948 whole entry): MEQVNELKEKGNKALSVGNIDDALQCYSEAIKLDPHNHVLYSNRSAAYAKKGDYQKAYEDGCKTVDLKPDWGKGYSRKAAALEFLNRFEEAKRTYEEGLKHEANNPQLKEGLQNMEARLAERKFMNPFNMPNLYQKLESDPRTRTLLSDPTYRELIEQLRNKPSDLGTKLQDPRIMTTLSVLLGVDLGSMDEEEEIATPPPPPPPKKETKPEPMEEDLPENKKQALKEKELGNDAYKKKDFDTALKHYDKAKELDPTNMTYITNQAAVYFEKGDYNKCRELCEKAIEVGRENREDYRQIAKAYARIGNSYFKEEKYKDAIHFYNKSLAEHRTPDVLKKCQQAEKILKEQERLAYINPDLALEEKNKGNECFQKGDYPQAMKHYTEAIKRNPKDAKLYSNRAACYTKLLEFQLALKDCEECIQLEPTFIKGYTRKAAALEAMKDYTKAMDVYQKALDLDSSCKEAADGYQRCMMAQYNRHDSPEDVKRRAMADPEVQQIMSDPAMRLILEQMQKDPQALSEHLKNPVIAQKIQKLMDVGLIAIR
Chain of proteins of HEK293T cells transiently overexpressing caspase-6 (Homo sapiens, UniProt P14618) (P14618 whole entry): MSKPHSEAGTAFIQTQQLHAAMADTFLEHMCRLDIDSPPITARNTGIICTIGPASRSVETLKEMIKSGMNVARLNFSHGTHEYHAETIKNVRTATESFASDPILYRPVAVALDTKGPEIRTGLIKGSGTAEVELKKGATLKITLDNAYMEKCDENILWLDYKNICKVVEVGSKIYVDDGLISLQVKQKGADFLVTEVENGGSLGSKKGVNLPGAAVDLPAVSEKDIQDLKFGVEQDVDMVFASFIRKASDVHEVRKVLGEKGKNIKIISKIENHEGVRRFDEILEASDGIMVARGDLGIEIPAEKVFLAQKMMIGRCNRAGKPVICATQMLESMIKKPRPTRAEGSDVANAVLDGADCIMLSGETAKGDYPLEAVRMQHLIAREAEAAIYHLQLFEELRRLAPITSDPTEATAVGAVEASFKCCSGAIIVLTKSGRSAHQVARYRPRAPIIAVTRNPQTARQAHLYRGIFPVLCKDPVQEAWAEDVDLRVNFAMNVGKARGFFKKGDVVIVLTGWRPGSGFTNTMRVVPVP
Chain of proteins of HEK293T cells transiently overexpressing caspase-6 (Homo sapiens, UniProt P63241) (P63241 whole entry): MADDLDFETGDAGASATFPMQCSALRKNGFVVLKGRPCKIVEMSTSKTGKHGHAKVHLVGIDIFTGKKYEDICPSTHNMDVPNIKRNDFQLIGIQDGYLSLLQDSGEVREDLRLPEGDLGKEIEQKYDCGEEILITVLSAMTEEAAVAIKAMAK
Chain of proteins of HEK293T cells transiently overexpressing caspase-6 (Homo sapiens, UniProt O75643) (O75643 whole entry): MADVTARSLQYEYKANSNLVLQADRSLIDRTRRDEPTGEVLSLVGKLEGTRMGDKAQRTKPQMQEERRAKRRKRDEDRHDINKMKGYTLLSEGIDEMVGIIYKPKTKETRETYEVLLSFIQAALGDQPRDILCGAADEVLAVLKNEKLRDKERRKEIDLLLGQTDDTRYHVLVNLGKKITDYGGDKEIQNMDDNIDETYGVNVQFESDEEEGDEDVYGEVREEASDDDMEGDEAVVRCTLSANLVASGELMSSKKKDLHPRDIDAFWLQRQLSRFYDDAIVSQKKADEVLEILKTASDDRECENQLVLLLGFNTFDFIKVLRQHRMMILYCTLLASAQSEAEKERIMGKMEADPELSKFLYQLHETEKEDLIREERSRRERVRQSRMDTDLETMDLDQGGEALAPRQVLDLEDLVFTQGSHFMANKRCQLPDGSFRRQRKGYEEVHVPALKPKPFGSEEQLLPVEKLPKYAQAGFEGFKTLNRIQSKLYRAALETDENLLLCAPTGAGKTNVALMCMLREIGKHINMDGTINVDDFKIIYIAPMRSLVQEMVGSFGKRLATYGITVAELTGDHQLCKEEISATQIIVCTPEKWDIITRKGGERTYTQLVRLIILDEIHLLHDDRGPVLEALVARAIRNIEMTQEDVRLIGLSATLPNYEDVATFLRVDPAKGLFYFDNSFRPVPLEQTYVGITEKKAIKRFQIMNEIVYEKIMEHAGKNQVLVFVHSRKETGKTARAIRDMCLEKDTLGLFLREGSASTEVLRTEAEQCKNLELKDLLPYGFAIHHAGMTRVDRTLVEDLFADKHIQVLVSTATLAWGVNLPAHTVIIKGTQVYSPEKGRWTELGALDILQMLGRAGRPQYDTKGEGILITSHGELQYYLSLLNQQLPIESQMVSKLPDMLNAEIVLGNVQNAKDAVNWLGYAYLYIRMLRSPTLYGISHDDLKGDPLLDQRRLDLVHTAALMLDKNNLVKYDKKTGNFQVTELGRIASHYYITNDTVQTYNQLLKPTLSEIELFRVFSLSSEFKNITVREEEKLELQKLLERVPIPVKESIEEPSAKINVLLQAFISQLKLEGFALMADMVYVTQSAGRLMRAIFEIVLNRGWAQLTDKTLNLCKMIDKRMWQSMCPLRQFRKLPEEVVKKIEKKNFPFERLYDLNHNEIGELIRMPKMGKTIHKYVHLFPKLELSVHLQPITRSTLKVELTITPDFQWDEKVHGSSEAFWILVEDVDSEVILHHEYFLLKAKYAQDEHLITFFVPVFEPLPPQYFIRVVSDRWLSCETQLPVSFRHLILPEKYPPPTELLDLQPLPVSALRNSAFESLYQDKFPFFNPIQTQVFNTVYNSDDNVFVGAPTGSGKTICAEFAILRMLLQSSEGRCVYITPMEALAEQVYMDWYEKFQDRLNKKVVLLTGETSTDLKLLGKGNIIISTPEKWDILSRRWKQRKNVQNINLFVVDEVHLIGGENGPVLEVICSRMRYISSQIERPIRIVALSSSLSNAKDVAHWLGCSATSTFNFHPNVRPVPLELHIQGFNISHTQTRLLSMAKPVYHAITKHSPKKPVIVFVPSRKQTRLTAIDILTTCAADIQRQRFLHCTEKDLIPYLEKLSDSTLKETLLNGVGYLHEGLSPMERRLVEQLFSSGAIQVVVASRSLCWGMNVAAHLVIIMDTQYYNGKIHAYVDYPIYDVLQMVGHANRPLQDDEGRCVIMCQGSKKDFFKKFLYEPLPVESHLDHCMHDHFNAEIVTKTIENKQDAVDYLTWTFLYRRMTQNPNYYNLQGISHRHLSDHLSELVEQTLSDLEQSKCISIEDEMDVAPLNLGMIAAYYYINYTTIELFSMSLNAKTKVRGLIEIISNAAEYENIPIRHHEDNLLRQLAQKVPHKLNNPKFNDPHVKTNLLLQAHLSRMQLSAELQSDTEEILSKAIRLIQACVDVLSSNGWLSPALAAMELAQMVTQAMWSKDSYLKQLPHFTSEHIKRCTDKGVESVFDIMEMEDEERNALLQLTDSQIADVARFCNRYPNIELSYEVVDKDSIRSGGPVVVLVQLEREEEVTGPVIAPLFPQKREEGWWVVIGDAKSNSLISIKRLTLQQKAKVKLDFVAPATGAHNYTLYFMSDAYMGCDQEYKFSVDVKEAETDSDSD
Chain of proteins of HEK293T cells transiently overexpressing caspase-6 (Homo sapiens, UniProt P14314) (P14314 15-528): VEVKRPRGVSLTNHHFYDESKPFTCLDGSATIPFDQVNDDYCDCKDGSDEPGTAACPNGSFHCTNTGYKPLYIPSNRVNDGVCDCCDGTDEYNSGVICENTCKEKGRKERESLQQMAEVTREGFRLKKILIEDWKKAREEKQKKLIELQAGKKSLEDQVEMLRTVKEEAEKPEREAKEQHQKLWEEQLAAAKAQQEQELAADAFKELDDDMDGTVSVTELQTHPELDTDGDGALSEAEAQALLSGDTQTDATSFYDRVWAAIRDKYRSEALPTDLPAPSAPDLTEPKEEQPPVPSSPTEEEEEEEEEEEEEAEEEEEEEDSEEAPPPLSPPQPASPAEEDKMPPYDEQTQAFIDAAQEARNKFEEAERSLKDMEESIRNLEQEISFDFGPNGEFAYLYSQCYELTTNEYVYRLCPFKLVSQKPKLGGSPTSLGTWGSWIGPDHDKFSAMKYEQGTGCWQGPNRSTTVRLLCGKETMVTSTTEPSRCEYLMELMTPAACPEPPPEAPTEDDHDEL
Chain of proteins of HEK293T cells transiently overexpressing caspase-6 (Homo sapiens, UniProt Q14247) (Q14247 whole entry): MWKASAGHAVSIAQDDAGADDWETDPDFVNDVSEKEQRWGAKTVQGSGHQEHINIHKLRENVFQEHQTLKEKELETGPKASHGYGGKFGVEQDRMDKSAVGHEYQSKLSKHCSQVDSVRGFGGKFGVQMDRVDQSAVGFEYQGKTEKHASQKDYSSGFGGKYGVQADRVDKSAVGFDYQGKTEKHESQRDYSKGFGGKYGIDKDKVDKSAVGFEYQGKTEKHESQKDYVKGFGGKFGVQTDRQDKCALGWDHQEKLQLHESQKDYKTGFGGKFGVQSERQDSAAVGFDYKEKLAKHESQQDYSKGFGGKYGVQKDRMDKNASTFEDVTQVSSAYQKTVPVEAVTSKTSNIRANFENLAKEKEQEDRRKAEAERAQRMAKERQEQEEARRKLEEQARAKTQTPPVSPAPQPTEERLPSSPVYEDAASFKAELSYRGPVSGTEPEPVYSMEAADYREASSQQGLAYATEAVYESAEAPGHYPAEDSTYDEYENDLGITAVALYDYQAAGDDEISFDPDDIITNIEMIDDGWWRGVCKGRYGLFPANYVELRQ
Chain of proteins of HEK293T cells transiently overexpressing caspase-6 (Homo sapiens, UniProt Q06830) (Q06830 whole entry): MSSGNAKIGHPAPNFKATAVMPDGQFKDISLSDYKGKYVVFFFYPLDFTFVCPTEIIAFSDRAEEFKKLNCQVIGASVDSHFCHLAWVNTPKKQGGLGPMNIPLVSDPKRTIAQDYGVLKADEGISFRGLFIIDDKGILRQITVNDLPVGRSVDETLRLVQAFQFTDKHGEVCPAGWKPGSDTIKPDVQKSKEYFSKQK

With `C#CCOc1ccc([C@@H]2C[C@@H](C(=O)Nc3ccc(OC(F)(F)F)cc3)CN(S(=O)(=O)C=C)C2)cc1` (relative stereo) [13-t], the enrich.exp.med was -0.0557 in assay [1]; 0.8107 in assay [2] (exp_ref Probe, analysis C6); -2.146 in [3] (Probe, protein PC P11498); -0.8366 in [4]; 0.4939 in [5] (exp_ref Probe, analysis C6); 0.2203 in assay [6]. Further, the enrich.exp.med in assay [7] (Probe, protein STIP1 P31948) was -0.591; in assay [8] (exp_ref Probe, analysis C6), 1.085; in assay [9], -0.2776; in [10], -0.3746; in assay [11], -0.1545; in assay [12], -0.3871. Further, the enrich.exp.med.lin was found to be 1.754 in assay [2]; 0.2259 in assay [3] (protein PC (P11498)); 1.408 in assay [5]; 0.6639 in [7] (protein STIP1 (P31948)); 2.121 in assay [8]. Besides, the enrich.exp.med.log2 in assay [2] is on record as 0.8107; in [3] (protein PC (P11498)), -2.146; in assay [5], 0.4939; in assay [7] (protein STIP1 (P31948)) it was -0.591; in [8] it was 1.085.

The values above are taken from paper PMC10176470, “Engaging a Non-catalytic Cysteine Residue Drives Potent and Selective Inhibition of Caspase-6” (Journal of the American Chemical Society, 2023).
